Experimental data: patent US9220700B2, “Cysteine for physiological injection” (Cornell University, priority 2009, dated 2015)

Legend:
neuromuscular blockade = experiment: Reversibility of neuromuscular blockade effects by administration of thiol compounds; type: in vivo; conditions: administration of thiol compounds such as cysteine (L or D) or glutathione
[1] = system: neuromuscular blockade produced by CW002; experiment: Reversal of CW002 neuromuscular blockade (recovery of muscle twitch) by cysteine in anesthetized beagles; type: in vivo; conditions: 0.08 mg/kg CW002, cysteine given 1 minute after CW002
Experimental: Three anesthetized male beagles received CW002. After 1 minute and complete loss of muscle twitch, D-cysteine was administered at dosages of 10, 20, 50 or 100 mg/kg. Each dose was given as a single experiment separated from other experiments by at least 7 days. The rate and time to complete recovery of muscle twitch in each animal was determined.

rats = experiment: L-cysteine toxicology in rats; type: in vivo; conditions: conscious rats; bolus injections of 750 mg/kg intravenously
Description: This Example describes toxicology studies performed using FDA guidelines.

[2] = system: neuromuscular blockade produced by CW002; conditions: previous study (Sunaga et al.); cited from earlier work
[3] = system: anesthetized male beagles; conditions: 100 mg/kg; previous work by the inventors; cited from earlier work
[4] = Natural pH, solubility and precipitation of cysteine solutions (general statements); type: physicochemical

## COc1ccc(CC2c3cc(OC)c(OC)cc3CC[N+]2(C)CCCOC(=O)/C=C/C(=O)OCCC[N+]2(C)CCc3cc(OC)c(OC)cc3C2Cc2ccc(OC)c(OC)c2)cc1OC (centres unmarked) [CW002]
Neuromuscular blockade
  Reversibility of neuromuscular blockade effects by thiol compounds: reversible

## COc1ccc(C[C@@H]2c3cc(OC)c(OC)cc3CC[N@@+]2(C)CCCOC(=O)/C=C\C(=O)OCCC[N@+]2(C)CCc3cc(OC)c(OC)cc3[C@H]2Cc2cc(OC)c(OC)c(OC)c2)cc1OC [CW 011]
Neuromuscular blockade
  Reversibility of neuromuscular blockade effects by thiol compounds: reversible

## N[C@H](CS)C(=O)O [D-cysteine]
[1]
  Dose range effective for reversal of CW002: 30 to 50 mg/kg

## N[C@@H](CS)C(=O)O [L-cysteine]
rats
  Clinical, biochemical, or histological evidence of organ toxicity: No animals exhibited clinical, biochemical, or histological evidence of organ toxicity
[2]
  Dose range effective for reversal of CW002 (previously described): 30 to 50 mg/kg
[3]
  Effect on blood pressure (previous work): modest increase in blood pressure

## N[C@@H](CS)C(=O)O [cysteine]
[4]; base form, read-out: Solubility of cysteine in its base form
  solubility: ≤ 50 mg/mL
[4]; pH values above 3
  Precipitation of cysteine solutions adjusted with sodium hydroxide: rapid cystine precipitation
